According to patent US20240325544A1, “CATIONIC LIPID FOR COVALENT MODIFICATION OF PEPTIDES” (PharmalN Corporation, priority 2023, published 2024):
Bridge positions count the residues as written; N and C are the ends. Square brackets hold non-standard residues; d marks the D form. Peptide text beside a SMILES is read from it. * marks the point of attachment. Palmitoyl = CCCCCCCCCCCCCCCC(=O)*; Dap = NC[C@H](N)C(=O)O; AEEA = NCCOCCOCC(=O)O

Columns and labels:
C57BL/6J mice = test: Acute exacerbation of idiopathic pulmonary fibrosis (IPF-AE) model, bleomycin + LPS (FIG. 5); format: in vivo; settings: Bleo 1.0 mg/kg IT, LPS 0.025 mg/kg IT; 0.3 mg/kg SC day before, of and after LPS
Protocol: FIGS. 5A-5E: The effect of cationic alkyl modified CNP derivatives in inflammation status of acute exacerbation of idiopathic pulmonary fibrosis (IPF-AE). Error bars indicate standard error of the mean. Increased inflammatory status in lung, especially increase of neutrophils, MCP1, IL-6, are seen in IPF-AE. Its decrease indicates resolution of IPF-AE. […] After 3 weeks, mice were treated with LPS (0.025 mg/kg IT) and treated SC with SEQ ID NO: 29 or 31 at 0.3 mg/kg (0.1 μmol/kg) the day before, of, and after LPS treatment as shown in the diagram. Additionally, a normal control (NC) group without LPS/Bleo treatment, a Bleo group without LPS treatment, and a Control group without test article treatment were also included. […]
Animal care and treatment: Male C57BL/6J mice (6 weeks-old) were purchased from Kyudo (Saga, Japan) and maintained under a 12-hour light/12-hour dark cycle with free access to water and standard mouse diet (MF diet, Oriental Yeast Co., Ltd. Tokyo, Japan). […] Lung weight/body weight ratio increase is a commonly measured parameter that indicates lung damage. […] The expression of MPO was assessed by Image J (NIH, Bethesda, MD, USA). […] Macrophage chemoattractant protein-1 (MCP1) was measured by using ELISA kit (R&D SYSTEMS, Minneapolis M N). […] The gene expression levels of IL-6 were measured with qRT-PCR-analysis by using cDNA synthesis kit (Qiagen; Venlo, the Netherlands). […]

human NPRC = molecular target: T1, human NPRC (Homo sapiens, UniProt P17342); test: Fluorescence polarization (FP) assay with CNP-F* probe, NPRC; format: binding; settings: 150 nM test article, 5 nM CNP-F*, 50 nM human NPRC
T1 construct: NPRC Q1-S434, (GenBank Accn. #NP_001191304.1); made in house; host or cells: Expi293 cells
T1 sequence (P17342 43-476 limits assumed): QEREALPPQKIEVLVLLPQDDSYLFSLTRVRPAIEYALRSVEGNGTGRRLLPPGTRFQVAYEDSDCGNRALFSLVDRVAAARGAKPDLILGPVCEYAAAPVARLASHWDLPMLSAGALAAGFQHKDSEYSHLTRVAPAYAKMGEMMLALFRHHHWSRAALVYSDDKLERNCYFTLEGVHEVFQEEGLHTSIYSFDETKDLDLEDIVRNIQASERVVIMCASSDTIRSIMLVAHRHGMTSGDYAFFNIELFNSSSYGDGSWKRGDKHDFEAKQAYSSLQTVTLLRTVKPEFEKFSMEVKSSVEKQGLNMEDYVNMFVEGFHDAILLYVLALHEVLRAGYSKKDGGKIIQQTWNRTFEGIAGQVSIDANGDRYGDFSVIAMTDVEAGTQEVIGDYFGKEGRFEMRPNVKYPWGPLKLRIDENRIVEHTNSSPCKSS
Protocol: Error bars represent standard error of the mean. […] NO.
In the presence of [SEQ ID.
The CNP-F* probe was incubated at a final concentration of 5 nM in the presence of 50 nM human NPRB or NPRC in an assay buffer containing PBS, pH 7.4 and 0.01% Triton X-100. A […] volume of CNP-F* probe and NPR were dispensed into a black 96-well Costar flat-bottom polystyrene plate prior to FP measurement. Next, […] volume of SEQ ID. No. 31 (final concentration 150 nM) was added to the premixed probe and NPR. The plate was incubated at room temperature for 10 min. Fluorescence polarization was then measured on Flexstation 3 (excitation wavelength: 480 nm; emission wavelength: 525 nm and cutoff at 515 nm).
CNP-F* was prepared using solid phase peptide synthesis. […] Next, the crude linear peptide was cleavage with 95% TFA in the presence of carbocation scavengers and ether precipitation.

## CCCCCCCCCCCCCCCC(=O)NCCOCCOCC(=O)NCCOCCOCC(=O)NCCOCCOCC(=O)N[C@@H](CN)C(=O)N[C@@H](CN)C(=O)NCC(=O)N[C@@H](CC(C)C)C(=O)N[C@@H](CO)C(=O)N[C@@H](CCCCN)C(=O)NCC(=O)N[C@H]1CSSC[C@@H](C(=O)O)NC(=O)CNC(=O)[C@H](CC(C)C)NC(=O)CNC(=O)[C@H](CO)NC(=O)[C@H](CCC(N)=O)NC(=O)[C@H](CO)NC(=O)CNC(=O)[C@H]([C@@H](C)CC)NC(=O)[C@H](CCCNC(=N)N)NC(=O)[C@H](CC(=O)O)NC(=O)[C@H](CC(C)C)NC(=O)[C@H](CCCCN)NC(=O)[C@H](CC(C)C)NC(=O)CNC(=O)[C@H](Cc2ccccc2)NC1=O [SEQ ID NO: 31] ({Palmitoyl-AEEA-AEEA-AEEA}-[Dap][Dap]GLSKGCFGLKLDRIGSQSGLGC-OH; disulfide 8-24; C-terminus assumed)
C57BL/6J mice
  MCP1 in lung: significant decrease of MCP1
Human NPRC
  Binding to NPRC (FP signal of CNP-F* probe): low FP signal demonstrates binding
